Patent US20060079453A1, “Hla binding peptides and their uses” (priority 2002, published 2006)
Read-outs that look alike come from different tables or passages of the source. No end group written: not given here.

Assays:
Assay in all cases: biochemical
Assay type in all cases: binding
HLA-DR DRB1*1101 (DR11) = HLA-DR DRB1*1101 (DR11) (Homo sapiens, UniProt P01903+P01911, A100R/A169T/A87E/I96F/K41T/L162R/M171V/P40S/Q125H/Q178H/Q39Y/Q99D/R42S/S66Y/T262R/V115G/W38E)
HLA-DR DRB1*1302 (DR13) = HLA-DR DRB1*1302 (DR13) (Homo sapiens, UniProt P01903+P01911, A100E/A169T/K41T/L162R/M171V/P40S/Q125H/Q178H/Q39Y/Q99D/R42S/S66N/T262R/V115G/W38E/Y61H)
HLA-DR DRB1*1501 (DR15) = HLA-DR DRB1*1501 (DR15) (Homo sapiens, UniProt P01903+P01911)
HLA-DR DRB1*0301 (DR3) = HLA-DR DRB1*0301 (DR3) (Homo sapiens, UniProt P01903+P01911, A100K/A102G/A103R/A169T/F55Y/I96L/K41T/L162R/M171V/P40S/Q125H/Q178H/Q39Y/R42S/S66N/T106N/T262R/W38E/Y61H)
HLA-DR DRB1*0101 (DR1) = HLA-DR DRB1*0101 (DR1) (Homo sapiens, UniProt P01903+P01911, A100R/D57E/F55L/F60I/F76Y/I96L/L162R/M171V/P40L/Q125E/R42F/V115G/Y59C)
HLA-DR DRB1*0401 (DR4) = HLA-DR DRB1*0401 (DR4) (Homo sapiens, UniProt P01903+P01911, A100K/A169T/F76Y/I96L/K127E/L162R/M171V/N62H/P40V/Q125Y/R42H/S133A/S149N/S66Y/V115G/V209L/W38E)
HLA-DR DRB1*0701 (DR7) = HLA-DR DRB1*0701 (DR7) (Homo sapiens, UniProt P01903+P01911, A100R/A102G/A103Q/D57E/D86V/E43K/F76Y/K127E/L162R/M171V/P40G/Q125H/Q99D/R33Q/R42Y/R54Q/S133A/S66F/T210M/V115G/Y107V/Y59L/Y89S)
HLA-DR DRB4*0101 (DR53) = HLA-DR DRB4*0101 (DR53) (Homo sapiens, UniProt P01903+P13762, G164S)
HLA-DR DRB5*0101 (DR51) = HLA-DR DRB5*0101 (DR51) (Homo sapiens, UniProt P01903+Q30154)

Sequence of HLA-DR DRB1*0301 (DR3) (P01903 26-254 limits assumed, other chains not shown): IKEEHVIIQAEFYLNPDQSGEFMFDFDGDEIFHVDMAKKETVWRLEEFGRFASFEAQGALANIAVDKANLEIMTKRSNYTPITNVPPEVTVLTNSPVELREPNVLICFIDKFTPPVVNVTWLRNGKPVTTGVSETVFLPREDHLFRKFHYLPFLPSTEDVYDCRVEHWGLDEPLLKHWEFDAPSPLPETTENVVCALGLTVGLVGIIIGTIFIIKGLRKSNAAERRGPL
Sequence of HLA-DR DRB1*1101 (DR11) (P01903 26-254 limits assumed, other chains not shown): as above
Sequence of HLA-DR DRB1*1302 (DR13) (P01903 26-254 limits assumed, other chains not shown): as above

Substance: LSFFLKEKGGLDGLI
- IC50 (HLA-DR DRB1*1101 (DR11); read-out: DRB1 *1101): 614 nM
- IC50 (HLA-DR DRB1*1302 (DR13); read-out: DRBI *1302): > 12000 nM
- IC50 (HLA-DR DRB1*1501 (DR15); read-out: DRBI *1501): > 39700 nM

Substance: LWWVNNESLPVSPRL
- IC50 (HLA-DR DRB1*0301 (DR3)): 315 nM

Substance: DRTLMSAMTNLAALE
- IC50 (HLA-DR DRB1*0101 (DR1); read-out: DRB1 *0101): 97 nM
- IC50 (HLA-DR DRB1*0301 (DR3); read-out: DRB1 *0301): 64300 nM
- IC50 (HLA-DR DRB1*0401 (DR4); read-out: DRB1 *0401): 13 nM
- IC50 (HLA-DR DRB1*0701 (DR7); read-out: DRB1 *0701): 383 nM

Substance: SVTWIGAAPLILSRI
- IC50 (HLA-DR DRB1*1101 (DR11); read-out: DRB1 *1101): 2200 nM
- IC50 (HLA-DR DRB1*1302 (DR13); read-out: DRBI *1302): 420 nM
- IC50 (HLA-DR DRB4*0101 (DR53); read-out: DRB4 *0101): 42 nM

Substance: LQDVVLELTPQTEID
- IC50 (HLA-DR DRB1*0101 (DR1); DRB1 *0101): 1490 nM
- IC50 (HLA-DR DRB1*0701 (DR7); DRB1 *0701): 5670 nM
- IC50 (HLA-DR DRB1*1101 (DR11); DRB1 *1101): > 31600 nM
- IC50 (HLA-DR DRB1*1302 (DR13); DRBI *1302): 1140 nM
- IC50 (HLA-DR DRB1*1501 (DR15); DRBI *1501): > 33100 nM
- IC50 (HLA-DR DRB4*0101 (DR53); DRB4 *0101): 1120 nM
- IC50 (HLA-DR DRB5*0101 (DR51); DRB5 *0101): > 31400 nM

Substance: TVVYREGNPFGICKL
- IC50 (HLA-DR DRB1*1101 (DR11); read-out: DRB1 *1101): > 18000 nM
- IC50 (HLA-DR DRB1*1302 (DR13); read-out: DRBI *1302): > 13100 nM
- IC50 (HLA-DR DRB5*0101 (DR51); read-out: DRB5 *0101): 48800 nM

Substance: YDFVFADLRIVYRDG
- IC50 (HLA-DR DRB1*1101 (DR11); read-out: DRB1 *1101): 6540 nM
- IC50 (HLA-DR DRB1*1302 (DR13); read-out: DRBI *1302): 8170 nM
- IC50 (HLA-DR DRB1*1501 (DR15); read-out: DRBI *1501): 25700 nM

Substance: ALLKNYGLLYCFRIW
- IC50 (HLA-DR DRB1*1101 (DR11); read-out: DRB1 *1101): > 15400 nM
- IC50 (HLA-DR DRB1*1302 (DR13); read-out: DRBI *1302): 10 nM
- IC50 (HLA-DR DRB1*1501 (DR15); read-out: DRBI *1501): 17 nM

Substance: (16A)RQTTLKAAA
- IC50 (HLA-DR DRB1*0401 (DR4); read-out: DRB1 *0401): 1.3 nM
- IC50 (HLA-DR DRB1*1101 (DR11); read-out: DRB1 *1101): 77 nM
- IC50 (HLA-DR DRB5*0101 (DR51); read-out: DRB5 *0101): 4000 nM

Substance: LGFFPDHQLDPAFRANT
- IC50 (HLA-DR DRB1*0301 (DR3); read-out: DRB1 *0301): 12000 nM

Substance: AAAKAAAAAAYAA
- IC50 (HLA-DR DRB1*0301 (DR3)): > 900000 nM
- IC50 (HLA-DR DRB1*0401 (DR4); DRB1 *0401): 229 nM

Substance: TYSVSFDSLFSAVKN
- IC50 (HLA-DR DRB1*1101 (DR11); read-out: DRB1 *1101): 5980 nM
- IC50 (HLA-DR DRB1*1302 (DR13); read-out: DRBI *1302): 5890 nM
- IC50 (HLA-DR DRB1*1501 (DR15); read-out: DRBI *1501): 3220 nM
- IC50 (HLA-DR DRB5*0101 (DR51); read-out: DRB5 *0101): 61 nM

Substance: KVSCKGSGYTFTAYQMH
- IC50 (HLA-DR DRB1*0101 (DR1); DRB1 *0101): 5000 nM
- IC50 (HLA-DR DRB1*0701 (DR7); DRB1 *0701): 50000 nM
- IC50 (HLA-DR DRB1*1101 (DR11); DRB1 *1101): > 200000 nM

Substance: KKPLNEILIRCHCQ
- IC50 (HLA-DR DRB1*1101 (DR11); read-out: DRB1 *1101): 1300 nM
- IC50 (HLA-DR DRB1*1302 (DR13); read-out: DRBI *1302): 965 nM
- IC50 (HLA-DR DRB4*0101 (DR53); read-out: DRB4 *0101): 140 nM

Substance: LREYILDLHPEPTDL
- IC50 (HLA-DR DRB1*1101 (DR11); read-out: DRB1 *1101): 9830 nM
- IC50 (HLA-DR DRB5*0101 (DR51); read-out: DRB5 *0101): > 40400 nM
